Experimental data: the supplement of paper PMC10307832

Assays:
Assay in all cases: relative viability (nuclei count vs DMSO), 5 days (fraction); higher = more cells survive
NCI-H358 = tested on: NCI-H358
Method in brief: (§1)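 After 5 days of treatment, lung cancer cells in 1536-well plates were fixed and stained in a single step (final 0.05% Triton X-100, 1% formaldehyde, 1 ug/ml Hoechst) and their nuclei counted on 4× images. Treatment had been applied by pin tool the day after seeding as one drug alone or as a fixed anchor-drug dose with five library-drug doses (not always all listed) in √10 steps. Relative viability is the nuclei count of treated wells divided by that of vehicle wells, and values are medians of duplicate plates.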

LU99A = tested on: LU99A
Method in brief: as §1

HOP-62 = tested on: HOP-62
Method in brief: as §1

NCI-H647 = tested on: NCI-H647
Method in brief: as §1

NCI-H2085 = tested on: NCI-H2085
Method in brief: as §1

H3255 = tested on: H3255
Method in brief: as §1

NCI-H2126 = tested on: NCI-H2126
Method in brief: as §1

NCI-H1395 = tested on: NCI-H1395
Method in brief: as §1

PC-3 [JPC-3] = tested on: PC-3 [JPC-3]
Method in brief: as §1

NCI-H1975 = tested on: NCI-H1975
Method in brief: as §1

SW 1573 = tested on: SW 1573
Method in brief: as §1

BEN = tested on: BEN
Method in brief: as §1

SMILES: COc1cc(N2CCC(C(N)=O)CC2)ccc1Nc1nc(N)c(Cl)c(Nc2ccccc2S(=O)(=O)C(C)C)n1 [HG-5-88-01] + Nc1nc2[nH]cc(CCc3ccc(C(=O)N[C@@H](CCC(=O)O)C(=O)O)cc3)c2c(=O)[nH]1 [Pemetrexed] (partner 0.2 µM)
- relative viability (NCI-H358; first compound 0.04 µM): 0.145
- relative viability (NCI-H358; first compound 0.1265 µM): 0.174
- relative viability (NCI-H358; first compound 0.4 µM): 0.162
- relative viability (NCI-H358; first compound 1.265 µM): 0.132
- relative viability (NCI-H358; first compound 4 µM): 0.148
- relative viability (LU99A; first compound 0.04 µM): 0.163
- relative viability (LU99A; first compound 0.1265 µM): 0.211
- relative viability (LU99A; first compound 0.4 µM): 0.165
- relative viability (LU99A; first compound 1.265 µM): 0.193
- relative viability (LU99A; first compound 4 µM): 0.168
- relative viability (HOP-62; first compound 0.04 µM): 0.319
- relative viability (HOP-62; first compound 0.1265 µM): 0.297
- relative viability (HOP-62; first compound 0.4 µM): 0.288
- relative viability (HOP-62; first compound 1.265 µM): 0.381
- relative viability (HOP-62; first compound 4 µM): 0.341
- relative viability (NCI-H647; first compound 0.04 µM): 0.159
- relative viability (NCI-H647; first compound 0.1265 µM): 0.194
- relative viability (NCI-H647; first compound 1.265 µM): 0.184
- relative viability (NCI-H647; first compound 4 µM): 0.157
- relative viability (NCI-H2085; first compound 0.04 µM): 0.911
- relative viability (NCI-H2085; first compound 0.1265 µM): 0.986
- relative viability (NCI-H2085; first compound 0.4 µM): 0.864
- relative viability (NCI-H2085; first compound 1.265 µM): 0.861
- relative viability (NCI-H2085; first compound 4 µM): 0.698
- relative viability (H3255; first compound 0.04 µM): 0.578
- relative viability (H3255; first compound 0.1265 µM): 0.571
- relative viability (H3255; first compound 0.4 µM): 0.54
- relative viability (H3255; first compound 4 µM): 0.501
- relative viability (NCI-H2126; first compound 0.04 µM): 0.644
- relative viability (NCI-H2126; first compound 0.1265 µM): 0.667
- relative viability (NCI-H2126; first compound 0.4 µM): 0.68
- relative viability (NCI-H2126; first compound 1.265 µM): 0.641
- relative viability (NCI-H2126; first compound 4 µM): 0.452
- relative viability (NCI-H1395; first compound 0.04 µM): 0.825
- relative viability (NCI-H1395; first compound 0.1265 µM): 0.923
- relative viability (NCI-H1395; first compound 0.4 µM): 0.751
- relative viability (NCI-H1395; first compound 1.265 µM): 1.05
- relative viability (NCI-H1395; first compound 4 µM): 0.753
- relative viability (PC-3 [JPC-3]; first compound 0.04 µM): 1.16
- relative viability (PC-3 [JPC-3]; first compound 0.1265 µM): 1.1
- relative viability (PC-3 [JPC-3]; first compound 0.4 µM): 0.935
- relative viability (PC-3 [JPC-3]; first compound 1.265 µM): 0.913
- relative viability (PC-3 [JPC-3]; first compound 4 µM): 0.348
- relative viability (NCI-H1975; first compound 0.04 µM): 0.27
- relative viability (NCI-H1975; first compound 0.1265 µM): 0.296
- relative viability (NCI-H1975; first compound 0.4 µM): 0.273
- relative viability (NCI-H1975; first compound 1.265 µM): 0.297
- relative viability (NCI-H1975; first compound 4 µM): 0.203
- relative viability (SW 1573; first compound 0.04 µM): 0.871
- relative viability (SW 1573; first compound 0.1265 µM): 0.79
- relative viability (SW 1573; first compound 0.4 µM): 0.689
- relative viability (SW 1573; first compound 1.265 µM): 0.777
- relative viability (SW 1573; first compound 4 µM): 0.823
- relative viability (BEN; first compound 0.04 µM): 0.76
- relative viability (BEN; first compound 0.1265 µM): 0.648
- relative viability (BEN; first compound 0.4 µM): 0.717
- relative viability (BEN; first compound 1.265 µM): 0.687
- relative viability (BEN; first compound 4 µM): 0.711
